# Reference: patent US20210308101A1, “METHODS OF TREATING FIBROMYALGIA” (Aptinyx Inc., priority 2019, published 2021)
# “Also recorded” adds a separate entry of the source.
# What was measured:
# [1] = system: subjects with fibromyalgia; experiment: PROMISFM fatigue profile; type: in vivo, human
# Excerpt: As used herein, the “PROMISFM” fatigue profile is Patient Reported Outcomes Measurement Information System Fibromyalgia, which is a 16-question instrument which has four 4-item short forms that examines the intensity of the impact of fatigue in social, cognitive and motivation subdomains. All 16 questions are based on a 5-point numerical rating scale/Likert scale ranging from 1 to 5, with different categorical responses. Lower scores represent a better quality of life. The PROMISFM fatigue profile is made of the 4 following subdomains: • Experience Subdomain Score 3 Questions with Scores Ranging from 1 (Not at All) to 5 (Very Much): • How tired did you feel on average? • How fatigued were you on average? • How exhausted were you on average? 1 Question with Scores Ranging from 1 (None) to 5 (Very Severe): • What was the level of your fatigue on most days? • Sum of those 4 Questions make up the Experience Subdomain Score Ranging from 4 to 20 • Social Impact Subdomain Score 2 Questions with Scores Ranging from 1 (Not at All) to 5 (Very Much): • To what degree did your fatigue interfere with your social activities? • To what degree did your fatigue interfere with your ability to engage in recreational activities? 2 Questions with Scores Ranging from 1 (Never) to 5 (Always): • How often did you have to limit your social activities because of your fatigue? • How often were you too tired to socialize with your friends? • Sum of those 4 Questions make up the Social Impact Subdomain Score Ranging from 4 to 20 • Motivational Impact Subdomain Score 2 Questions with Scores Ranging from 1 (Not at All) to 5 (Very Much): • To what degree did you have trouble starting things because of your fatigue? • To what degree did you have trouble finishing things because of your fatigue? […] 2 Questions with Scores Ranging from 1 (Never) to 5 (Always): • How often were you too tired to think clearly? • How often did your fatigue make you more forgetful? • Sum of those 4 Questions make up the Cognitive Impact Subdomain Score Ranging from 4 to 20
# If at least 2 questions were answered within an individual subdomain, that subdomain score was imputed if missing responses are present. Each subdomain score was multiplied by 4/(number of questions answered) and rounded off to the nearest whole number. Otherwise, that subdomain score was set to missing. The total score was calculated by taking the sum of those 4 subdomains and ranged from 16 to 80. If any of the subdomains were missing, the total score was set to missing. The PROMISFM fatigue profile assessment was collected and analyzed at visits Screening, Day 1, Week 2, Week 4, Week 6, and Follow-up (Week 7). The observed total and subdomain scores, changes from baseline, and changes from treatment periods were summarized using descriptive statistics. Additionally, the treatment group comparisons were analyzed using the paired t-test and nonparametric Wilcoxon signed-rank test. All PROMISFM fatigue profile data collected and the calculated total and subdomain scores at each visit were presented in a subject listing.
# [2] = system: resting state functional connectivity; experiment: rs-fcMRI seed-based region of interest functional connectivity; type: in vivo, human
# Excerpt: Resting state functional connectivity magnetic resonance imaging (rs-fcMRI) also uses noninvasive techniques to map blood flow in the brain. In rs-fcMRI, neural connections between different areas of the brain are identified by mapping regions of synchronous blood flow fluctuations. Synchronous blood fluctuations are examined to determine the strength of neural connections between different brain regions.
# Resting 6-minute scans, with subjects resting comfortably in the scanner with eyes open and fixated on a crosshair, were completed at the beginning of the scan session. Whole brain BOLD rs-fcMRI data were collected following same parameters used for evoked fMRI. Physiological data were also collected simultaneously with rs-fcMRI data, as cardiorespiratory fluctuations are known to influence rs-fcMRI intrinsic connectivity estimation within several brain networks
# In order to quantify intrinsic brain connectivity, rs-fcMRI data were analyzed with both dual-regression ICA and seed-voxel approaches. These approaches are complementary, as they quantify intrinsic brain connectivity on a network level (dual regression probabilistic ICA) and a more specific region-focused level (seed-voxel).
# Resting state functional connectivity MRI data were preprocessed and analyzed using statistical parametric mapping software package Version 12, the CONN functional connectivity toolbox, and the GIFT toolbar, all running on MATLAB Version 9.2 or later. Upon collection of rs-fcMRI data, physiological artifacts were first removed using a custom MATLAB algorithm and slice-time corrected using Functional Magnetic Resonance Imaging of the Brain Software Library software. Preprocessing steps included motion correction, realignment, registration, normalization to standard Montreal Neurological Institute template, and smoothing (full width at half maximum Gaussian kernel of 6 or 8 mm).
# Seed to whole brain functional connectivity analysis was performed using the CONN toolbox, Version 15, running on […]. […] Spheres were created (5 mm radius) around peak voxel coordinates and white matter, CSF, and motion parameters were used as covariates of no interest. Seed-based analyses were also performed using regions of interest assessed with single voxel ^1H-MRS regions showing NYX-2925 effects on Glx level. Data were band pass filtered (0.01 to 0.1 Hz) to remove linear drifts and high frequency noise. First level analysis correlated the time course from the seed to all brain voxels, creating connectivity maps for each seed region. These connectivity maps were passed up to group-level analyses comparing differences in connectivity at the visits of interest in statistical parametric mapping.
# Several analyses were conducted with the fMRI resting state and task data. Results were assessed by: 1) a primary analysis, where a finding was deemed significant with a corrected cluster level p<0.05, derived from an uncorrected voxel-wise p<0.001, and 2) an exploratory analysis, where a finding was deemed significant with an uncorrected voxel-wise p<0.005 and having a cluster greater than or equal to 80 contiguous voxels. Results that met significance in the primary analyses had connectivity values extracted and imported into SPSS v25 where paired t-tests were performed to assess for potential outliers contributing to the finding. Remaining data were then correlated with clinical measures using parametric bivariate Pearson correlations. Results were deemed significant at p<0.05.
# Seed-based, region of interest, functional connectivity analyses were performed (n=18) for regions that were used to acquire ^1H-MRS data: dACC, perigenual anterior cingulate cortex (pgACC), right anterior insula cortex, right posterior insula cortex, precuneus, thalamus, and medial prefrontal cortex.
# [3] = exploratory, placebo visit to NYX-2925 200 mg visit
compound,measurement,setting,value
"CC(C)C(=O)N1CCC[C@]12CN([C@H](C(N)=O)[C@@H](C)O)C2=O [NYX-2925, (2S, 3R)-3-hydroxy-2-((R)-5-isobutyryl-1-oxo-2,5-diazaspiro[3.4]octan-2-yl)butanamide]","PROMISFM total fatigue profile score, change from baseline",[1]; NYX-2925 20 mg,reductions from baseline
same,"PROMISFM Cognitive Impact Subdomain Score, changes from Week 2 (placebo)",[1]; NYX-2925 treatment at Weeks 4 and 6,not statistically significant
same,"PROMISFM Fatigue Profile Total Score, mean change","[1]; Week 2 (placebo) to Week 4 (NYX-2925 20 mg), not statistically significant",−3.4
same,"PROMISFM Experience Subdomain Score, mean change","[1]; Week 2 (placebo) to Week 6 (NYX-2925 200 mg), p=0.0036",−2.2
same,"PROMISFM Fatigue Profile Total Score, mean change","[1]; Week 2 (placebo) to Week 6 (NYX-2925 200 mg), p=0.0049",−5.6
same,"PROMISFM Social Impact Subdomain Score, mean change","[1]; Week 2 (placebo) to Week 6 (NYX-2925 200 mg), p=0.0329",−1.4
same,"PROMISFM Motivational Impact Subdomain Score, mean change","[1]; Week 2 (placebo) to Week 6 (NYX-2925 200 mg), p=0.0490",−1.0
same,"PROMISFM Fatigue Profile total score, reduction from baseline","[1]; week six, after four weeks of NYX-2925, scale 16 to 80, n=21",5.4 point
same,connectivity right anterior insula cortex seed - right ventral anterior thalamic nucleus,"[2]; baseline visit to NYX-2925 200 mg visit, PFWE=0.018",decreased
same,connectivity right posterior insula cortex seed - dACC,"[2]; exploratory analysis, placebo visit to NYX-2925 20 mg visit",decrease in connectivity
same,connectivity precuneus - right anterior insula and left dACC,"[2]; exploratory, baseline visit to NYX-2925 20 mg visit",decreased
same,connectivity precuneus - right mid cingulate cortex,"[2]; exploratory, placebo visit to NYX-2925 20 mg visit",Decreases in resting state functional connectivity
same,connectivity precuneus seed - right posterior/mid cingulate cortex,[2]; [3],decreased
same,connectivity thalamus seed - right anterior prefrontal cortex and bilateral precuneus,[2]; [3],decreases in connectivity
same,functional connectivity dACC seed - right posterior insula cortex,"[2]; placebo to NYX-2925 20 mg, not meeting cluster level correction significance",decreased connectivity
same,functional connectivity pgACC seed - left precuneus/precentral gyrus,"[2]; placebo visit to NYX-2925 20 mg visit, PFWE<0.00001",decreased
same,connectivity medial prefrontal cortex seed - right anterior prefrontal cortex and right mid cingulate cortex,"[2]; placebo visit to NYX-2925 200 mg visit, PFWE=0.003 and 0.036",Decreases were also observed
same,functional connectivity pgACC seed - right inferior frontal gyrus,"[2]; placebo visit to NYX-2925 200 mg visit, PFWE=0.008",decreased
same,connectivity of precuneus seed,[2]; primary analyses,no significant results
same,connectivity of right posterior insula cortex seed,[2]; primary analyses,no significant findings
same,connectivity thalamus seed - bilateral cuneus,"[2]; primary analysis, baseline visit to NYX-2925 200 mg visit, PFWE<0.00001",significant decrease in resting state connectivity
same,"functional connectivity of dACC seed to right superior temporal gyrus, left premotor/primary somatosensory cortex, right precuneus, left precentral gyrus/premotor cortex","[2]; primary analysis, placebo visit to NYX-2925 20 mg visit, PFWE 0.030-0.049",reduced connectivity; also recorded: decreased functional connectivity
same,connectivity medial prefrontal cortex seed - right anterior prefrontal/dorsolateral prefrontal cortex,"[2]; primary, baseline visit to NYX-2925 200 mg visit, PFWE=0.001",Significant decreases in resting state connectivity
